Measurements: PubChem BioAssay AID1963451 (Molecular Pharmacology Branch, DTP, NCI, 2024)
Several values for one entry are separate records, joined by “and”; a condition that tells them apart may be missing. Equal entries are not always repeated.

System: 521955-158-R6-J3-PDC complex spheroid growth, % test/control
Experiment: Anticancer human tumor 521955-158-R6-J3-PDC patient-derived pancreatic carcinoma cell line growth inhibition [Asc]
Conditions: for viability, T/C: stronger effect = lower value
Protocol: Multicellular complex tumor spheroid response to apoptosis pathway targeting inhibitors Alrizomadlin, Pelcitoclax, and Dasminapant in combination with a variety of drugs and investigational agents in selected tumor cell lines
The MDM2 inhibitor alrizomadlin, the Bcl-2/Bcl-xL inhibitor pelcitoclax, and the IAPs inhibitor dasminapant were evaluated both individually and in combination with standard of care and investigational anticancer small molecules within a complex spheroid model of solid tumors. . Complex spheroids include a stromal component modeled by human endothelial cells (HUVEC) and fibroblasts modeled by human mesenchymal stem cells (MSCs). The concentration ranges selected for each drug and investigational agent were based upon clinically achievable concentrations if the clinical Cmax of the agent was known.
Compounds. The drugs and investigational agents: alrizomadlin (APG-115; NSC831270), pelcitoclax (APG-1252; NSC835773), dasminapant (APG-1387;NSC834197), TAK-243 (NSC785004), copanlisib (NSC809693), olaparib (NSC753686), talazoparib (NSC767125), cobimetinib (NSC 768068), eltanexor (KPT-8602, NSC 794443), abemaciclib (NSC 768073), sotorasib (NSC818433), adagrasib (NSC 831453), MRTX-1133 (NSC 836407), Iadademestat (ORY1001, NSC 806812), and RMC-4630 (NSC839698), were obtained from the NCI Developmental Therapeutics Program Chemical Repository. The FDA-approved anticancer drug set is available from the Developmental Therapeutics Program at https://dtp.cancer.gov/organization/dscb/obtaining/available plates.htm. […] The stock solutions were prepared in dimethyl sulfoxide (DMSO, Sigma-Aldrich, St. Louis, MO, cat. D2650) at 800-fold the tested concentration and stored at -70 degrees C prior to their use. All drugs and investigational agents were tested over a range starting from a high concentration at or near the clinical Cmax and decreasing in half-log increments. If the clinical Cmax for an agent had not been determined, the highest concentration tested was 10 microM.
The patient-derived cancer (PDC) cell lines include five colon adenocarcinomas: 186277-243-T-J2-PDC, 616215-338-R-J1-PDC, 439559-082-T-J2-PDC, 463943-066-T-J2-PDC, and 519858-162-T-J1-PDC; three pancreatic carcinomas: 323965-272-R-J2-PDC, 521955-158-R6-J3-PDC, and 521955-158-R2-J5-PDC; two uterine sarcomas: 327498-152-R-J2-PDC and 993429-296-R-J1-PDC; two rhabdomyosarcomas: 755483-174-R-J1-PDC and 772245-204-R-J1-PDC; two soft tissue sarcomas: 126254-015-R-J1-PDC and 494315-158-R-J1-PDC; two malignant fibrous histiocytomas: 317291-083-R-J1-PDC and 596521-263-R-J1-PDC; two breast carcinomas: 171881-019-R-J1-PDC and 885512-296-R-J2-PDC; and one ovarian carcinoma: 6556581-035-R-J-PDC were obtained from the NCI PDMR, (https://pdmr.cancer.gov). The established cell lines HSSY-2 synovial sarcoma (RRID:CVCL 8719), SYO-1 synovial sarcoma (RRID:CVCL_7146), MPNST malignant peripheral neural sheath tumor were obtained from the Sloan Kettering Institute. The following established cell lines were purchased from the American Type Culture Collection (ATCC, Manassas, VA), Sor the received from the NCI repository:, PANC-1 pancreatic carcinoma (CRL-1469, RRID:CVCL_0480), OVCAR-5 ovarian carcinoma (RRID:CVCL_1628), OVCAR-8 ovarian carcinoma (RRID:CVCL_1629), , MCF-7 breast carcinoma (CRL-12584, RRID:CVCL_0031), MDA-MB-231 breast carcinoma (CRL-12532, RRID:CVCL_0062), NCI-H1876 small cell lung carcinoma (CRL-5902, RRID:CVCL_1503), NCI-H510A small cell lung carcinoma (HTB-184, RRID:CVCL_1565), NCI-H1417 (CRL-5869, RRID:CVCL_1469), and NCI-H196 small cell lung carcinoma (CRL-5823, RRID:CVCL_1509). Dr. Peter Houghton (Greehey Children's Cancer Research Institute, University of Texas Health Science Center, San Antonio, TX) provided Rh-18 rhabdomyosarcoma (RRID:CVCL_1659). Pooled donor human umbilical vein endothelial cells (HUVEC, Lonza, cat. CC-2519) and human mesenchymal stem cells (hMSC, Lonza, cat. PT-2501) were purchased from Lonza (Walkersville, MD).
Cell Culture. […]

[1] = compound alone, run of 11/07/2022
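Note: spheroids exposed to compounds for 7 days.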
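Throughout, for viability, T/C: 100% = DMSO vehicle control wells.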

IC50 (curve of compound) | SMILES | viability, T/C (compound 0.0316 µM) | viability, T/C (compound 0.1 µM) | viability, T/C (compound 0.316 µM) | viability, T/C (compound 1 µM) | viability, T/C (compound 3.16 µM) | viability, T/C (compound 10 µM) | viability, T/C (compound 0.00316 µM) | viability, T/C (compound 0.01 µM) | also measured
342 nM and 452 nM and 387 nM | C#Cc1c(F)ccc2cc(O)cc(-c3ncc4c(N5CC6CCC(C5)N6)nc(OCC56CCCN5CC(F)C6)nc4c3F)c12 (configuration not stated) | 60.7% and 66.5% and 60.8% | 52.9% and 52% and 53.5% | 46% and 58.3% and 47.4% | 48% and 45.1% and 47% | 33.9% and 35.5% and 44.9% | 18.6% and 32.2% |  |  | 
5040 nM and 4980 nM and 5380 nM | C=C(F)C(=O)N1CCN(c2nc(OCC3CCCN3C)nc3c2CCN(c2cccc4cccc(Cl)c24)C3)CC1CC#N (configuration not stated) | 102% (2×) and 93.7% | 93.2% and 115% and 87.3% | 78.6% and 89.8% and 90.9% | 89.2% and 87.9% and 95.7% | 83.7% and 86.3% and 93.3% | 0.33% and 0.31% and 0.93% |  |  | 
> 10000 nM | C=CC(=O)N1CCN(c2nc(=O)n(-c3c(C)ccnc3C(C)C)c3nc(-c4c(O)cccc4F)c(F)cc23)C(C)C1 (configuration not stated) | 104% and 94.7% and 96.5% | 105% and 107% and 89.4% | 95.1% and 92% and 95.3% | 111% and 100% and 122% | 112% and 125% and 121% | 93.7% and 124% and 118% |  |  | 
> 3000 nM | CCN1C(C(=O)NC23CCC(C(=O)O)(CC2)CC3)C(c2cccc(Cl)c2F)C2(C(=O)Nc3cc(Cl)ccc32)C12CCCCC2 (configuration not stated) |  |  |  |  |  |  |  |  | viability, T/C (compound 0.3 µM): 109% [middle of 9 runs]; IC50 [1]: > 3000 nM
> 1000 nM | CCN1CCN(Cc2ccc(Nc3ncc(F)c(-c4cc(F)c5nc(C)n(C(C)C)c5c4)n3)nc2)CC1 | 77.9% and 87.5% and 87.9% | 86.7% and 105% and 94.8% | 85.5% and 74.2% and 83.4% | 87.4% and 96.5% and 91.6% |  |  | 88.9% and 113% and 94.9% | 105% and 115% and 102% | 
592 nM and 275 nM and 177 nM | COc1c(OCCCN2CCOCC2)ccc2c3n(c(=NC(=O)c4cnc(N)nc4)nc12)CCN3 | 76.5% and 75.6% and 63.8% | 62.5% and 81.4% and 64.8% | 41.9% and 61.3% and 48.6% | 34.7% and 40% and 32.8% |  |  | 83.2% and 98.8% and 91.5% | 97.2% and 78.8% and 72.1% | 
 | Cc1c(S(C)(=O)=O)c(-c2cc(F)cc(N3CCN(c4ccc(NS(=O)(=O)c5ccc(NC(CCN6CCC(C(=O)OCCCP(=O)(O)O)CC6)CSc6ccccc6)c(S(=O)(=O)C(F)(F)F)c5)cc4)CC3)c2)c(-c2ccc(Cl)cc2)n1C(C)C (configuration not stated) | 77.2% [middle of 7 runs] | 71.5% [middle of 7 runs] | 54% [middle of 7 runs] | 37.2% [middle of 7 runs] | 23.6% [middle of 7 runs] | 18.2% [middle of 7 runs] |  |  | IC50 [1]: 412 nM [middle of 7 runs]
> 3000 nM | Cc1nc(N2CCC3(CC2)COC(C)C3N)c(CO)nc1Sc1ccnc(N)c1Cl (configuration not stated) |  |  |  |  |  |  |  |  | viability, T/C (compound 0.00949 µM): 89.6% and 113% and 112%; viability, T/C (compound 0.03 µM): 90.4% and 106% and 101%; viability, T/C (compound 0.0949 µM): 83.9% and 93.1% and 97%; viability, T/C (compound 0.3 µM): 84.7% and 97.1% and 94.5%; viability, T/C (compound 0.949 µM): 72.8% and 94.4% and 71.6%; viability, T/C (compound 3 µM): 57.9% and 89.5% and 90.1%
> 100 nM | Cn1ncnc1[C@H]1c2n[nH]c(=O)c3cc(F)cc(c23)N[C@@H]1c1ccc(F)cc1 | 97.9% and 96.4% and 84.3% | 95.5% and 85.7% and 96.4% |  |  |  |  | 108% and 97.1% and 83.8% | 106% and 116% and 114% | viability, T/C (compound 0.000316 µM): 100% and 86% and 85.9%; viability, T/C (compound 0.001 µM): 117% and 105% and 93.7%
> 300 nM | NC(=O)C(=Cn1cnc(-c2cc(C(F)(F)F)cc(C(F)(F)F)c2)n1)c1cncnc1 |  |  |  |  |  |  |  |  | viability, T/C (compound 0.000949 µM): 105% and 126% and 111%; viability, T/C (compound 0.003 µM): 96.3% and 105% and 115%; viability, T/C (compound 0.00949 µM): 84.8% and 93.3% and 105%; viability, T/C (compound 0.03 µM): 98% and 98.2% and 115%; viability, T/C (compound 0.0949 µM): 124% and 107% and 73.9%; viability, T/C (compound 0.3 µM): 121% and 93.9% and 62.7%
> 100 nM | NC1CCC(NC2CC2c2ccccc2)CC1 (configuration not stated) | 128% and 103% and 93.2% | 117% and 99.7% and 89.2% |  |  |  |  | 136% and 105% and 97.8% | 128% and 117% and 109% | viability, T/C (compound 0.000316 µM): 104% and 94% and 98.2%; viability, T/C (compound 0.001 µM): 124% and 120% and 99.5%
> 10000 nM | O=C(c1cc(Cc2n[nH]c(=O)c3ccccc23)ccc1F)N1CCN(C(=O)C2CC2)CC1 | 103% and 91.4% and 91.6% | 92.6% and 93.9% and 101% | 100% and 101% and 87.3% | 108% and 101% and 91.8% | 98.8% and 94.8% and 124% | 98.6% and 78.8% and 86.5% |  |  | 
681 nM and 684 nM and 396 nM | O=C(c1ccc(F)c(F)c1Nc1ccc(I)cc1F)N1CC(O)([C@@H]2CCCCN2)C1 | 120% and 125% and 79.5% | 105% and 98.2% and 79% | 67.9% and 66.9% and 54% | 41% and 41.8% and 29.7% |  |  | 87.6% and 110% and 88.3% | 116% and 111% and 90.7% | 
